Assay results from ChEMBL document CHEMBL1145603, “Evaluation of antiangiogenic activity of azumamides by the in vitro vascular organization model using mouse induced pluripotent stem (iPS) cells” (Bioorg Med Chem Lett, 2008).

Each molecule was assayed against Histone deacetylase 1 (Homo sapiens, UniProt Q13547) (assay: Inhibition of human HDAC1 expressed in 293T cells).
Assay type: cell-based

Chain of Histone deacetylase 1 (Q13547 whole entry): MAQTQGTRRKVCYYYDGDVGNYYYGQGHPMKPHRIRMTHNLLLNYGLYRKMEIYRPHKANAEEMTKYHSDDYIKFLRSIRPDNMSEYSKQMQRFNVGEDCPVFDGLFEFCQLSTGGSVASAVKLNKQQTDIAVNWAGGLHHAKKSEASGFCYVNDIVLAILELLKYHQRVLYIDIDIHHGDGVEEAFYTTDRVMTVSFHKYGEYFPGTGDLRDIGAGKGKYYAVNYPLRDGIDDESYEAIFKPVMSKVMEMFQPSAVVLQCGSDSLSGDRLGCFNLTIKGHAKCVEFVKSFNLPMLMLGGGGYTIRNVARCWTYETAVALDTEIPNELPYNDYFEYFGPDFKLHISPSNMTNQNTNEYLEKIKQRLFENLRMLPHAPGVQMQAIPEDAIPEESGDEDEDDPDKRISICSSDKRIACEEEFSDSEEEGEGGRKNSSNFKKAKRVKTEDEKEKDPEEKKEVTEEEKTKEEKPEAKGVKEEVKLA

Row | IC50 | SMILES
1 | 1.17 µM | CC(C)[C@H]1NC(=O)[C@@H](C)[C@@H](C/C=C\CCC(=O)O)NC(=O)[C@@H](Cc2ccc(O)cc2)NC(=O)[C@@H](C)NC1=O [AZUMAMIDE C]
2 | 1.83 µM | CC(C)[C@H]1NC(=O)[C@@H](C)[C@@H](C/C=C\CCC(N)=O)NC(=O)[C@@H](Cc2ccc(O)cc2)NC(=O)[C@@H](C)NC1=O [AZUMAMIDE B]

The remaining lines, values behind:

Row | SMILES | IC50
3 | CC(C)[C@H]1NC(=O)[C@@H](C)[C@@H](C/C=C\CCC(N)=O)NC(=O)[C@@H](Cc2ccccc2)NC(=O)[C@@H](C)NC1=O [AZUMAMIDE A] | > 50 µM
4 | C[C@@H]1C(=O)N[C@H](C)C(=O)N[C@H](C)C(=O)N[C@H](Cc2ccccc2)C(=O)N[C@@H]1C/C=C\CCC(N)=O [AZUMAMIDE D] | > 50 µM

Each molecule was assayed against Histone deacetylase 4 (Homo sapiens, UniProt P56524) (assay: Inhibition of human HDAC4 expressed in 293T cells).
Assay type: cell-based

Chain of Histone deacetylase 4 (P56524 whole entry): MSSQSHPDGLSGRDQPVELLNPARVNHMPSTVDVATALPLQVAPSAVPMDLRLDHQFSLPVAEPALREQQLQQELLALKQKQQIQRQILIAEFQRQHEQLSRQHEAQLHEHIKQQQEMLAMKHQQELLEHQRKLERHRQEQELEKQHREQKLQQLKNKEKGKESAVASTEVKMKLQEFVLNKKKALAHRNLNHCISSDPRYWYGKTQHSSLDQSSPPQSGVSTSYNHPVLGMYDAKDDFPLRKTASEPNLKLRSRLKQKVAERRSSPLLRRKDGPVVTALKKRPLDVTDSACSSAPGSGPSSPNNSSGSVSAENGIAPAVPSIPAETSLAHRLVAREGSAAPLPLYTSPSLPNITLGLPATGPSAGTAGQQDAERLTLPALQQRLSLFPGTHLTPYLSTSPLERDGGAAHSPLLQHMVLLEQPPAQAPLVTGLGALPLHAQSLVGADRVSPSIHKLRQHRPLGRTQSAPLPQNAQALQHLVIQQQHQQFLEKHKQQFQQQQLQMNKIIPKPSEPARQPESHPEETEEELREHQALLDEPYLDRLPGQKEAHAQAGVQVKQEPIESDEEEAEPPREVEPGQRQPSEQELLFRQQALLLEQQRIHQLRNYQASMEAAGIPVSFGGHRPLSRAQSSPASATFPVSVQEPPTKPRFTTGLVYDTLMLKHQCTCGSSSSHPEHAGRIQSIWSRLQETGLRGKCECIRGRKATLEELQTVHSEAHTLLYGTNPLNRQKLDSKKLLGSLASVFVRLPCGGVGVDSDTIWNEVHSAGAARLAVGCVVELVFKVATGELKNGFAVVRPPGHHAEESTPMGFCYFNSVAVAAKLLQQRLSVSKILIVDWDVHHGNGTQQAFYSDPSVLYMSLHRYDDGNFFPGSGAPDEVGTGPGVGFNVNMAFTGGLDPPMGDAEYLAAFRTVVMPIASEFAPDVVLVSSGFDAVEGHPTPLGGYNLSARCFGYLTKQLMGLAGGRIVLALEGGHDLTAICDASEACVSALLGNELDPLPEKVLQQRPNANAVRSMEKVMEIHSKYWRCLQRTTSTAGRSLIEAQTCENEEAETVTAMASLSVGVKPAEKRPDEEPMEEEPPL

Row | IC50 | SMILES
5 | 2.28 µM | CC(C)[C@H]1NC(=O)[C@@H](C)[C@@H](C/C=C\CCC(=O)O)NC(=O)[C@@H](Cc2ccccc2)NC(=O)[C@@H](C)NC1=O [AZUMAMIDE E]
6 | 3.16 µM | CC(C)[C@H]1NC(=O)[C@@H](C)[C@@H](C/C=C\CCC(=O)O)NC(=O)[C@@H](Cc2ccc(O)cc2)NC(=O)[C@@H](C)NC1=O [AZUMAMIDE C]
7 | 3.66 µM | CC(C)[C@H]1NC(=O)[C@@H](C)[C@@H](C/C=C\CCC(N)=O)NC(=O)[C@@H](Cc2ccc(O)cc2)NC(=O)[C@@H](C)NC1=O [AZUMAMIDE B]

The next lines start with the molecule.

Row | SMILES | IC50
8 | CC(C)[C@H]1NC(=O)[C@@H](C)[C@@H](C/C=C\CCC(N)=O)NC(=O)[C@@H](Cc2ccccc2)NC(=O)[C@@H](C)NC1=O [AZUMAMIDE A] | > 50 µM
9 | C[C@@H]1C(=O)N[C@H](C)C(=O)N[C@H](C)C(=O)N[C@H](Cc2ccccc2)C(=O)N[C@@H]1C/C=C\CCC(N)=O [AZUMAMIDE D] | > 50 µM

These molecules were tested against T1, Protein deacetylase HDAC6 (Homo sapiens, UniProt Q9UBN7) (assay: Inhibition of human HDAC6 expressed in 293T cells).
T1 sequence (Q9UBN7 whole entry): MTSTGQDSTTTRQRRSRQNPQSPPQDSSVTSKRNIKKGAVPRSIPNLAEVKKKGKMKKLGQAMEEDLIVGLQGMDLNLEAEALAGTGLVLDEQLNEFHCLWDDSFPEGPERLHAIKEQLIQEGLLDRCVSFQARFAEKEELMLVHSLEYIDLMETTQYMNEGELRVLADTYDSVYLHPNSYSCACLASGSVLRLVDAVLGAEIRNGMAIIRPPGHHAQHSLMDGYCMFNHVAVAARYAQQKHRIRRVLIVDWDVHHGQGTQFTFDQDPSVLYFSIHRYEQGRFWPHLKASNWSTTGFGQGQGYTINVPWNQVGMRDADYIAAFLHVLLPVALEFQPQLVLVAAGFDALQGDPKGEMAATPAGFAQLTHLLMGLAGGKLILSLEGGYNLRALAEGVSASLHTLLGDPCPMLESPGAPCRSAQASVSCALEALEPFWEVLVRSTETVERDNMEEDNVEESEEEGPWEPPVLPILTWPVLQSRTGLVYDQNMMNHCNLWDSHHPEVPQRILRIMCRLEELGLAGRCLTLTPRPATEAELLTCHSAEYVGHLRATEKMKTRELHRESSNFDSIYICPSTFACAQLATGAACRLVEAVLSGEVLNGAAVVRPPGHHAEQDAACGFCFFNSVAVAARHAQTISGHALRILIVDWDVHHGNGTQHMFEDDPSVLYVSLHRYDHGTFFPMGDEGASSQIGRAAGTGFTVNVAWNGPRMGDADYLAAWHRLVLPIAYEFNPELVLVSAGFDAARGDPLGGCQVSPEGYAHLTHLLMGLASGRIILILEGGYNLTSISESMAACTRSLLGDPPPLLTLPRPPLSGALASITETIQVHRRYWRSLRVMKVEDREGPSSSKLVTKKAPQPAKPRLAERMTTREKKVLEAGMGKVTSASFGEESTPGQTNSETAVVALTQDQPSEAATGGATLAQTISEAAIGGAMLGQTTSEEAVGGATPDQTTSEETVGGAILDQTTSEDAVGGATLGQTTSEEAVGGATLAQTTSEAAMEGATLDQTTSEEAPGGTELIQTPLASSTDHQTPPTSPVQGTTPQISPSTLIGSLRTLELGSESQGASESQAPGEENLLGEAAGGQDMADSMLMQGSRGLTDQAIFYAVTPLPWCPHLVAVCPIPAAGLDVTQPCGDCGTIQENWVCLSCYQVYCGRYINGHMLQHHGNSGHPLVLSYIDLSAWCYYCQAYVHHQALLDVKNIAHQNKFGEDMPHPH
Assay type: cell-based

Row | IC50 | SMILES
10 | > 50 µM | CC(C)[C@H]1NC(=O)[C@@H](C)[C@@H](C/C=C\CCC(=O)O)NC(=O)[C@@H](Cc2ccccc2)NC(=O)[C@@H](C)NC1=O [AZUMAMIDE E]
11 | > 50 µM | CC(C)[C@H]1NC(=O)[C@@H](C)[C@@H](C/C=C\CCC(=O)O)NC(=O)[C@@H](Cc2ccc(O)cc2)NC(=O)[C@@H](C)NC1=O [AZUMAMIDE C]
12 | > 50 µM | CC(C)[C@H]1NC(=O)[C@@H](C)[C@@H](C/C=C\CCC(N)=O)NC(=O)[C@@H](Cc2ccc(O)cc2)NC(=O)[C@@H](C)NC1=O [AZUMAMIDE B]

More lines, now with the values behind:

Row | SMILES | IC50
13 | CC(C)[C@H]1NC(=O)[C@@H](C)[C@@H](C/C=C\CCC(N)=O)NC(=O)[C@@H](Cc2ccccc2)NC(=O)[C@@H](C)NC1=O [AZUMAMIDE A] | > 50 µM
14 | C[C@@H]1C(=O)N[C@H](C)C(=O)N[C@H](C)C(=O)N[C@H](Cc2ccccc2)C(=O)N[C@@H]1C/C=C\CCC(N)=O [AZUMAMIDE D] | > 50 µM

Each molecule was assayed on HeLa (assay: Induction of p21 expression in human HeLa cells after 24 hrs).
Assay type: functional

Row | SMILES | EC1000
15 | CC(C)[C@H]1NC(=O)[C@@H](C)[C@@H](C/C=C\CCC(N)=O)NC(=O)[C@@H](Cc2ccccc2)NC(=O)[C@@H](C)NC1=O [AZUMAMIDE A] | >25 µM
16 | CC(C)[C@H]1NC(=O)[C@@H](C)[C@@H](C/C=C\CCC(=O)O)NC(=O)[C@@H](Cc2ccccc2)NC(=O)[C@@H](C)NC1=O [AZUMAMIDE E] | 17 µM
17 | CC(/C=C/C(=O)NO)=C\[C@@H](C)C(=O)c1ccc(N(C)C)cc1 [TRICHOSTATIN] | 0.0115 µM
18 | C[C@@H]1C(=O)N[C@H](C)C(=O)N[C@H](C)C(=O)N[C@H](Cc2ccccc2)C(=O)N[C@@H]1C/C=C\CCC(N)=O [AZUMAMIDE D] | >25 µM
19 | CC(C)[C@H]1NC(=O)[C@@H](C)[C@@H](C/C=C\CCC(=O)O)NC(=O)[C@@H](Cc2ccc(O)cc2)NC(=O)[C@@H](C)NC1=O [AZUMAMIDE C] | >25 µM
20 | CC(C)[C@H]1NC(=O)[C@@H](C)[C@@H](C/C=C\CCC(N)=O)NC(=O)[C@@H](Cc2ccc(O)cc2)NC(=O)[C@@H](C)NC1=O [AZUMAMIDE B] | >25 µM

Organism: Mus musculus
Test: Antiangiogenic activity in mouse induced pluripotent stem cells
Assay type: functional

Row | SMILES | Activity
21 | CC(C)[C@H]1NC(=O)[C@@H](C)[C@@H](C/C=C\CCC(=O)O)NC(=O)[C@@H](Cc2ccccc2)NC(=O)[C@@H](C)NC1=O [AZUMAMIDE E] | Dose-dependent effect
